Laboratory results: patent US20150352127A1, “INHALATION PARTICLES COMPRISING A COMBINATION OF AN ANTICHOLINERGIC, A CORTICOSTEROID AND A BETA-ADRENERGIC” (CHIESI FARMACEUTICI S.P.A., priority 2014, published 2015)
Counter-ions that a name gives are not always drawn.

Legend:
Assay type in all cases: physicochemical
[1] = Uniformity of distribution of the active ingredients in the powder formulation (UPLC-PDA); conditions: powder formulation of Example 3; for Content: sampled 10 times
Experimental: About 10 mg of the formulation was weighed directly into a 25 mL volumetric flask. It was sampled 10 times. The flask was made up to volume with 60:40% v/v MeOH:H2O and sonicated for 2 minutes. The samples were analyzed for each active ingredient using UPLC-PDA assay.

[2] = Drug content of the microparticles by UPLC assay; conditions: in spray dried microparticles of Example 1; mean±SD, n=5
[3] = Aerosol performances by Next Generation Impactor (NGI) from NEXThaler; conditions: formulation of Example 3, NEXThaler, 60 L/min; mean±S.D., n=6
Experimental: Aerosol performances were determined using the Next Generation Impactor (NGI) with a USP induction port and pre-separator containing 15 mL 60:40% v/v MeOH:H2O. […] The aerodynamic particle size distribution was based on 5 actuations from the NEXThaler®, each sampled into 4 liters of air (equivalent to an inhalation time of 4 s). The device was weighed before and after each actuation to determine the shot weight (mg). A minimum of 1 minute was allowed between consecutive actuations to allow static charge to dissipate.
Samples were collected from the NGI using a fixed volume technique. MeOH:H2O (60:40% v/v) was dispensed into the induction port (including mouthpiece); pre-separator; and each stage using an electronic metering dispenser. The induction port (30 mL) and pre-separator (50 mL) were sealed using silicone bungs and shaken by hand for 2 minutes before the samples were collected. The NGI stages (10 mL stages 1-2; 15 mL stage 3-MOC) were rocked using a NGI rocker for 3 minutes. All samples were filtered using a 0.2 μm syringe filter before analysis by UPLC-PDA.

| SMILES | % of Target [1] [%] | Content [1] [μg 10 mg^−1] | Actual concentration [2] [% w/w] | DD (delivered dose) [3] [µg] | FPF (fine particle fraction) [3] [%] | FPF < 1 μm (extrafine FPF) [3] [%] | FPF < 2 μm (extrafine FPF) [3] [%] | FPM (fine particle mass, ≤5.0 micron) [3] [µg] | MMAD [3] [μm] |
| --- | --- | --- | --- | --- | --- | --- | --- | --- | --- |
| C[N+]1(C)CCC(OC(=O)C(O)(c2ccccc2)C2CCCC2)C1 (racemic) [GB, glycopyrronium bromide] | 105.37 | 12.64 ± 0.18 | 10.6 ± 0.1 | 11.5 ± 0.4 | 68.5 ± 3.7 | 21.7 ± 0.7 | 39.3 ± 1.6 | 7.9 ± 0.5 | 1.9 ± 0.1 |
| CCC(=O)OCC(=O)[C@@]1(OC(=O)CC)[C@@H](C)C[C@H]2[C@@H]3CCC4=CC(=O)C=C[C@]4(C)[C@@]3(Cl)[C@@H](O)C[C@@]21C [BDP, beclometasone dipropionate] | 98.75 | 98.75 ± 1.23 | 82.0 ± 0.3 | 87.6 ± 2.2 | 68.5 ± 3.1 | 20.8 ± 0.7 | 38.6 ± 1.2 | 60.0 ± 3.6 | 1.9 ± 0.1 |
| COc1ccc(CC(C)NCC(O)c2ccc(O)c(NC=O)c2)cc1 (stereo not shown) [FF, formoterol fumarate dihydrate] |  |  |  | 5.2 ± 0.1 |  |  |  |  |  |
